What was measured:
[1] = molecular target: alpha-amylase; experiment: in vitro alpha-amylase inhibition (AAI) assay, Ultra-Amylase EnzChek Assay Kit; format: biochemical
Excerpt: The AAI capacity of T. minuta flavonoids was estimated using an Ultra-Amylase®Enz-Chek Assay Kit in line with a formerly reported method.

[2] = no reference given; cited from earlier work
[3] = parameters: method as in PMID 24599122, PMID 16168446; conditions: cited from earlier work
[4] = parameters: method as in PMID 24599122, PMID 16168446; conditions: cited from earlier work; for IC50 for DPPH: radical scavenging
[5] = system: PE (phenylephrine)-precontracted thoracic aortic rings; parameters: method as in PMID 23763258; conditions: PE-precontracted thoracic aortic rings in rats; cited from earlier work

SMILES | IC50 [1] | further results
COc1c(O)cc2oc(-c3ccc(O)c(O)c3)c(OC)c(=O)c2c1O [Compound 11, quercetin-3,6-dimethyl ether] | 21.7 µM | 
C[C@H]1O[C@H](O[C@H]2[C@H](O)[C@@H](O)[C@@H](O[C@H]3[C@H](O)[C@@H](O)C(O)O[C@@H]3CO)O[C@@H]2CO)[C@H](O)[C@@H](O)[C@@H]1N[C@H]1C=C(CO)[C@@H](O)[C@H](O)[C@H]1O (stereo partly shown) [Acarbose] |  | oral dose absorbed into the bloodstream [2]: 2%; oral dose eliminated through fecal excretion [2]: approximately 51%
O=c1c(O)c(-c2ccc(O)c(O)c2)oc2cc(O)c(OC3OC(CO)C(O)C(O)C3O)c(O)c12 [Compound 3, quercetagetin-6-O-β-D-glucopyranoside] | 8.9 µM | 
COc1c(-c2ccc(O)c(O)c2)oc2c(O)c(O)c(O[C@@H]3O[C@H](CO)[C@@H](O)[C@H](O)[C@H]3O)c(O)c2c1=O [Compound 7, tagenol B] | 10.8 µM | 
O=c1c(O)c(-c2ccc(O)c(O)c2)oc2cc(OC3OC(CO)C(O)C(O)C3O)c(O)c(O)c12 [Compound 2, quercetagetin-7-O-β-D-glucopyranoside] | 7.8 µM | %inhibition for superoxide anion [3]: 82.85%; IC50 for DPPH [4]: 3.92 mg/L; vasorelaxation [5]: vasorelaxation potential
COc1c(O)cc2oc(-c3ccc(O)c(O)c3)c(O)c(=O)c2c1O [Compound 8, patuletin] | 13.6 µM | 
COc1cc2oc(-c3ccc(O)c(O)c3)c(OC)c(=O)c2c(O)c1O[C@@H]1O[C@H](CO)[C@@H](O)[C@H](O)[C@H]1O [Compound 9, quercetagetin-3,7-dimethoxy-6-O-β-D-glucopyranoside] | 12.7 µM | 
COc1ccc(-c2oc3c(O)c(O)c(OC)c(O)c3c(=O)c2OC)cc1O [Compound 12, tagenol A] | 14.9 µM | 
COc1c(-c2ccc(O)c(O)c2)oc2cc(O)cc(O)c2c1=O [Compound 10, quercetin-3-methyl ether] | 26.9 µM | 
COc1c(OC2OC(CO)C(O)C(O)C2O)cc2oc(-c3ccc(O)c(O)c3)c(O)c(=O)c2c1O [Compound 5, patuletin-7-O-β-D-glucopyranoside] | 8.1 µM | IC50 for DPPH [4]: 12.1 mg/L
COc1cc2oc(-c3ccc(O)c(O)c3)c(O)c(=O)c2c(O)c1O[C@@H]1O[C@H](CO)[C@@H](O)[C@H](O)[C@H]1O [Compound 6, quercetagetin-7-methoxy-6-O-β-D-glucopyranoside] | 9.7 µM | 
CCCCCC(=O)OCC1OC(Oc2c(O)cc3oc(-c4ccc(O)c(O)c4)c(O)c(=O)c3c2O)C(O)C(O)C1O (stereo not shown) [Compound 4, minutaside A] | 9.2 µM | 
O=C(C=Cc1ccc(O)c(O)c1)OCC1OC(Oc2c(O)cc3oc(-c4ccc(O)c(O)c4)c(O)c(=O)c3c2O)C(O)C(O)C1O [Compound 1, quercetagetin-6-O-(6-O-caffeoyl-β-D-glucopyranoside)] | 10.1 µM | DPPH scavenging [4]: 89.1%
